Target: T1, dopamine D3 receptor (Homo sapiens, UniProt P35462)
T1 construct: host or cells: Chinese Hamster Ovary (CHO) cells, membranes
Experiment: GTPS scintillation proximity assay (GTPS-SPA), CHO_D3 membranes, antagonist format
Format: biochemical
Method: Functional potency of compounds of this invention can be measured by the following GTPS scintillation proximity assay (GTPS-SPA). Cells used in the study are Chinese Hamster Ovary (CHO) Cells. • Cell Line • CHO_D2 • CHO_D3 • Dopamine CHO D3 (Biocat no 1060) transduced with bacmam G0 G-protein (Biocat no 97886)
All steps are performed at 4° C. Cell membranes are prepared as follows. Cell pellets are resuspended in 10 volumes of 50 mM HEPES, 1 mM EDTA pH 7.4, using KOH. Cells are homogenised within a glass waring blender for 2 bursts of 15 secs in 200 mls of buffer (50 mM HEPES, 1 mM leupeptin, 25 μg/ml bacitracin, 1 mM EDTA, 1 mM PMSF, 2 μM Pepstatin A). (the latter 2 reagents added as fresh ×100 and ×500 stocks respectively in ethanol). The blender is plunged into ice for 5 mins after the first burst and 10-40 mins after the final burst to allow foam to dissipate. The material is then spun at 500 g for 20 mins and the supernatant spun for 36 mins at 48.000 g. The pellet is resuspended in the same buffer as above but without PMSF and Pepstatin A. The material is then forced through a 0.6 mm needle, made up to the required volume, (usually ×4 the volume of the original cell pellet), aliquoted and stored frozen at −80° C.
The final top concentration of test drug is 3 μM in the assay and 11 points serial dilution curves 1:4 in 100% DMSO are carried out using a Biomek FX. The test drug at 1% (0.5 ul) total assay volume (TAV) is added to a solid, white Greiner polypropylene 384-well assay plate. 50% TAV (25 μl) of precoupled (for 60 mins at RT) membranes, 5 μg/well, and Wheatgerm Agglutinin Polystyrene Scintillation Proximity Assay beads (RPNQ0260, Amersham), 0.25 mg/well, in 20 mM HEPES (pH 7.4, 100 mM NaCl, 10 mM MgCl2), 60 μg/mL saponin and 30 uM GDP is added. The third addition is a 20% TAV (10 ul) addition of either buffer, (agonist format) or EC80 final assay concentration of agonist, Quinelorane, prepared in assay buffer (antagonist format). The assay is started by the addition of 29% TAV (15 ul) of GTP[35S] 0.38 nM final (37 MBq/mL, 1160 Ci/mmol, Amersham). After all additions assay plates are spun down for 1 min at 1,000 rpm. The final assay cocktail ([…]) is incubated at room temperature to equilibrate for 3-6 hours before reading on a ViewLux™ (613/55 filter) luminescence imager 5 min/plate.
The effect of the test drug over the basal generates fpKi values of test drug are calculated from the IC50 generated by “antagonist format” experiment, using Cheng & Prusoff equation: fKi=IC50/1+([A]/EC50) where: [A] is the concentration of the agonist Quinelorane in the assay and EC50 is the Quinelorane EC50 value obtained in the same experiment. fpKi is defined as −logfKi. • pKi results are only estimated to be accurate to about 0.3-0.5.

T1 sequence (P35462 whole entry, species assumed): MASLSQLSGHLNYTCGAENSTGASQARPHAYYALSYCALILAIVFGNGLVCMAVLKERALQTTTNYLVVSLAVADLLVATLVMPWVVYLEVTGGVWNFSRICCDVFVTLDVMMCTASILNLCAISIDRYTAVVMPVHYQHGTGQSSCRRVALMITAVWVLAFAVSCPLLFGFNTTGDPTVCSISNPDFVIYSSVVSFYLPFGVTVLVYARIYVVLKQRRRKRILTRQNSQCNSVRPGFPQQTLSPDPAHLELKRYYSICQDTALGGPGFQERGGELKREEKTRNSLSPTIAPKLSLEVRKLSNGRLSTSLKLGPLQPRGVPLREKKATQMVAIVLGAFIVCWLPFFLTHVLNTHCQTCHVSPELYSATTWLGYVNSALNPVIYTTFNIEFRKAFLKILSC

For `Cl.Cl.O=c1[nH]c(=O)n(CCCN2C[C@@H]3C[C@]3(c3ccc(C(F)(F)F)cc3)C2)cc1-c1cc(Cl)cnc1F` [Example E43, 5-(5-chloro-2-fluoro-3-pyridinyl)-1-(3-{(1S,5R)-1-[4-(trifluoromethyl)phenyl]-3-azabicyclo[3.1.0]hex-3-yl}propyl)-2,4(1H,3H)-pyrimidinedione dihydrochloride], the “Selectivity for D3 over D2 receptors” value was 100 fold.

Reference: patent US7727988B2, “Azabicyclo[3.1.0]hex-3-yl}alkyl)pyrimidinedione” (Glaxo Group Limited, priority 2006, dated 2010)
